Results on four compounds are retold here after ChEMBL document CHEMBL1158049, “Bisindole alkaloids from myxomycetes Arcyria denudata and Arcyria obvelata” (J Nat Prod, 2006).

≈ marks a conversion by molar mass, not a printed value.

The test concerns Jurkat. The test can be described thus: Cytotoxicity against human Jurkat cells after 42 hrs by alamar blue assay. The class given is functional, cell-based.
Consider `O=C1NC(=O)C(c2c[nH]c3cc(OS(=O)(=O)O)ccc23)=C1c1c[nH]c2ccccc12`, for which the IC50 (commonly the point on the concentration scale where inhibition reaches its midpoint) was > 25 µg/mL.

In turn, `O=C1NC(=O)C(c2c[nH]c3cc(O)ccc23)=C1c1c[nH]c2ccccc12` [ARCYRIARUBIN B] had an IC50 of 10 µg/mL (≈ 29.1 µM).

With `O=C1NC(=O)C2=C1c1c([nH]c3cc(O)ccc13)Oc1cccc3[nH]cc2c13` [ARCYROXOCIN B], the IC50 amounted to 7 µg/mL (≈ 19.6 µM).

`O=C1NC(=O)[C@H]2c3c[nH]c4cccc(c34)-c3[nH]c4ccccc4c3[C@@H]12` [DIHYDROARCYRIACYANIN A]: inhibition was half-maximal at 7 µg/mL (≈ 21.4 µM) (IC50).
